Measurements: ChEMBL document CHEMBL4699665, “Discovery of ANT3310, a Novel Broad-Spectrum Serine β-Lactamase Inhibitor of the Diazabicyclooctane Class, Which Strongly Potentiates Meropenem Activity against Carbapenem-Resistant Enterobacterales and Acinetobacter baumannii” (J Med Chem, 2020)

Experiments:
[1] = Half life in rat at 1 mg/kg, iv; assay type: ADME, organism-based; conditions: in vivo
[2] = Inhibition of beta lactamase AmpC in Enterobacter cloacae assessed as decrease in enzyme activity using nitrocefin as substrate preincubated for 10 mins followed by substrate addition measured for 10 mins by fluorescence plate reader analysis
[3] = Inhibition of beta lactamase CTXM-15 in Enterobacter cloacae assessed as decrease in enzyme activity using nitrocefin as substrate preincubated for 10 mins followed by substrate addition measured for 10 mins by fluorescence plate reader analysis
[4] = Inhibition of beta lactamase TEM-1 in Enterobacter cloacae assessed as decrease in enzyme activity using nitrocefin as substrate preincubated for 10 mins followed by substrate addition measured for 10 mins by fluorescence plate reader analysis
[5] = Inhibition of beta lactamase OXA-48 in Enterobacter cloacae assessed as decrease in enzyme activity using nitrocefin as substrate preincubated for 10 mins followed by substrate addition measured for 10 mins by fluorescence plate reader analysis
Klebsiella pneumoniae [6] = experiment: Potentiation of meropenem-induced antibacterial activity against Klebsiella pneumoniae expressing TEM-1/SHV-11/KPC-3 assessed as meropenem MIC at 4 ug/ml by broth microdilution method (reference value: 128 ug/ml); assay type: functional; conditions: dose 4 µg/ml
Klebsiella pneumoniae [7] = experiment: Antibacterial activity against Klebsiella pneumoniae expressing TEM-OSBL/CTX-M-14/OXA-48 by broth microdilution method; assay type: functional
Acinetobacter baumannii [8] = experiment: Antibacterial activity against Acinetobacter baumannii expressing OXA-23 by broth microdilution method; assay type: functional
Enterobacter [9] = experiment: Inhibition of beta lactamase KPC in carbapenem-resistant Enterobacter assessed as meropenem-induced antibacterial activity by measuring meropenem MIC50 at 4 ug/ml by broth microdilution method (Rvb >32 ug/ml); conditions: dose 4.0 µg/ml
Enterobacter [10] = experiment: Inhibition of beta lactamase KPC in carbapenem-resistant Enterobacter assessed as meropenem minimum concentration required for antibacterial activity at 4 ug/ml by broth microdilution method (reference value: 4 ug/ml); conditions: dose 4.0 µg/ml
Enterobacter [11] = experiment: Inhibition of beta lactamase KPC in carbapenem-resistant Enterobacter assessed as meropenem maximum concentration required for antibacterial activity at 4 ug/ml by broth microdilution method (Rvb >32 ug/ml); conditions: dose 4.0 µg/ml
Enterobacter [12] = experiment: Inhibition of beta lactamase OXA in carbapenem-resistant Enterobacter assessed as meropenem-induced antibacterial activity by measuring meropenem MIC50 at 4 ug/ml by broth microdilution method (reference value: 16 ug/ml); conditions: dose 4.0 µg/ml
Enterobacter [13] = experiment: Inhibition of beta lactamase OXA in carbapenem-resistant Enterobacter assessed as meropenem-induced antibacterial activity by measuring meropenem MIC 90 at 4 ug/ml by broth microdilution method (Rvb >32 ug/ml); conditions: dose 4.0 µg/ml
Acinetobacter baumannii [14] = experiment: Inhibition of beta lactamase OXA in carbapenem-resistant Acinetobacter baumannii assessed as meropenem-induced antibacterial activity by measuring meropenem MIC50 at 4 ug/ml by broth microdilution method (Rvb > 32 ug/ml); conditions: dose 4.0 µg/ml
Acinetobacter baumannii [15] = experiment: Inhibition of beta lactamase OXA in carbapenem-resistant Acinetobacter baumannii assessed as meropenem-induced antibacterial activity by measuring meropenem MIC90 at 4 ug/ml by broth microdilution method (Rvb > 32 ug/ml); conditions: dose 4.0 µg/ml
Acinetobacter baumannii [16] = experiment: Inhibition of beta lactamase OXA in carbapenem-resistant Acinetobacter baumannii assessed as meropenem maximum concentration required for antibacterial activity at 4 ug/ml by broth microdilution method (Rvb > 32 ug/ml); conditions: dose 4.0 µg/ml
[17] = Stability in mouse plasma assessed as parent compound remaining after 1 hr; assay type: ADME, cell-free; conditions: read-out: Stabilty
[18] = Stability in rat plasma assessed as parent compound remaining after 1 hr; assay type: ADME, cell-free; conditions: read-out: Stabilty
[19] = Stability in human plasma assessed as parent compound remaining after 1 hr; assay type: ADME, cell-free; conditions: read-out: Stabilty
[20] = Intrinsic clearance in rat hepatocytes assessed per million cells; assay type: ADME, cell-based, Hepatocyte; conditions: read-out: CLH
[21] = Intrinsic clearance in dog hepatocytes assessed per million cells; assay type: ADME, cell-based, Canis lupus familiaris, Hepatocyte; conditions: read-out: CLH
[22] = Intrinsic clearance in human hepatocytes assessed per million cells; assay type: ADME, cell-based, Hepatocyte; conditions: read-out: CLH
[23] = Plasma protein binding in mouse assessed as fraction unbound by LC-MS/MS analysis; assay type: ADME, cell-free
[24] = Plasma protein binding in rat assessed as fraction unbound by LC-MS/MS analysis; assay type: ADME, cell-free
[25] = Plasma protein binding in human assessed as fraction unbound by LC-MS/MS analysis; assay type: ADME, cell-free
Cytochrome P450 1A2 = biological target: T1, Cytochrome P450 1A2 (Homo sapiens, UniProt P05177); experiment: Inhibition of CYP1A2 in human liver microsomes in presence of NADPH by LC-MS/MS analysis; assay type: ADME
T1 sequence (P05177 whole entry): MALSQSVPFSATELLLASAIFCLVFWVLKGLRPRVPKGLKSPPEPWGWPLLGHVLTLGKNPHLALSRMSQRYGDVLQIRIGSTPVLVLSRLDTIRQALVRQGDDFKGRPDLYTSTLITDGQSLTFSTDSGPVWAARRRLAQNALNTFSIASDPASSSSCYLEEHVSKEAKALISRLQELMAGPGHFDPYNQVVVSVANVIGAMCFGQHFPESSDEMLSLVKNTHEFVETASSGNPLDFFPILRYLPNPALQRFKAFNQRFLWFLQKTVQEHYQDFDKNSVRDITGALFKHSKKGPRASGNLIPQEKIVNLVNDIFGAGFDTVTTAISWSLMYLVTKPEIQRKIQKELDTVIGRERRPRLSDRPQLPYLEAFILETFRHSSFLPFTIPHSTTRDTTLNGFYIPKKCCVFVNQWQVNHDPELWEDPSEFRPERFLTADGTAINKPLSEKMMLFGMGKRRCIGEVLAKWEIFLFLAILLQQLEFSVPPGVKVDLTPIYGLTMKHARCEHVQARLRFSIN

Cytochrome P450 2C9 = Cytochrome P450 2C9 (Homo sapiens, UniProt P11712); experiment: Inhibition of CYP2C9 in human liver microsomes in presence of NADPH by LC-MS/MS analysis; assay type: ADME
Cytochrome P450 2C9, sequence (P11712 whole entry): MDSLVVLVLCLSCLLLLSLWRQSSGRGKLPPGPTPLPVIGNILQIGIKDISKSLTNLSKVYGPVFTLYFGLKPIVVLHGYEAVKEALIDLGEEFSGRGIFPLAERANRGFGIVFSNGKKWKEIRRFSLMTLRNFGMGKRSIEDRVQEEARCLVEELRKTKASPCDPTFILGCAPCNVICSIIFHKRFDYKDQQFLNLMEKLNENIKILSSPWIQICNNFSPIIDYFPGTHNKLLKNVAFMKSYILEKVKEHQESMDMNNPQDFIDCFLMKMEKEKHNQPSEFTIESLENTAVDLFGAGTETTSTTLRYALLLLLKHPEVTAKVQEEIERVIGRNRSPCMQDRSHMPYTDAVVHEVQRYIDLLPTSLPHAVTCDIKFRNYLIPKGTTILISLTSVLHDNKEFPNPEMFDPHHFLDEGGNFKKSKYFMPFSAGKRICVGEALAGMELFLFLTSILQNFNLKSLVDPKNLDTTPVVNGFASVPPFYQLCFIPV

Cytochrome P450 2C19 = Cytochrome P450 2C19 (Homo sapiens, UniProt P33261); experiment: Inhibition of CYP2C19 in human liver microsomes in presence of NADPH by LC-MS/MS analysis; assay type: ADME
Cytochrome P450 2C19, sequence (P33261 whole entry): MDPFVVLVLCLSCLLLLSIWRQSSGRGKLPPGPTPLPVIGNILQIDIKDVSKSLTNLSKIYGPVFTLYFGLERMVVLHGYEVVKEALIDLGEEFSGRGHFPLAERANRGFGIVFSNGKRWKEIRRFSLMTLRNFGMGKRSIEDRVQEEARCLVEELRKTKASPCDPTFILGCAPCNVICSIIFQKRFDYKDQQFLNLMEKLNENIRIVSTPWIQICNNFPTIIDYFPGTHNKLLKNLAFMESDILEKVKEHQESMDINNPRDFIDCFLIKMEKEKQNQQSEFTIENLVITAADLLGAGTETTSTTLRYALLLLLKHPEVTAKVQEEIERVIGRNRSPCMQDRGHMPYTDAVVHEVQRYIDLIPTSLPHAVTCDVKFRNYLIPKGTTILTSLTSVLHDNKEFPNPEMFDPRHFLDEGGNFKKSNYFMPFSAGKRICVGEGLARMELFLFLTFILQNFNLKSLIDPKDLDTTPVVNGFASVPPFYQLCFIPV

Cytochrome P450 2D6 = Cytochrome P450 2D6 (Homo sapiens, UniProt P10635); experiment: Inhibition of CYP2D6 in human liver microsomes in presence of NADPH by LC-MS/MS analysis; assay type: ADME
Cytochrome P450 2D6, sequence (P10635 whole entry): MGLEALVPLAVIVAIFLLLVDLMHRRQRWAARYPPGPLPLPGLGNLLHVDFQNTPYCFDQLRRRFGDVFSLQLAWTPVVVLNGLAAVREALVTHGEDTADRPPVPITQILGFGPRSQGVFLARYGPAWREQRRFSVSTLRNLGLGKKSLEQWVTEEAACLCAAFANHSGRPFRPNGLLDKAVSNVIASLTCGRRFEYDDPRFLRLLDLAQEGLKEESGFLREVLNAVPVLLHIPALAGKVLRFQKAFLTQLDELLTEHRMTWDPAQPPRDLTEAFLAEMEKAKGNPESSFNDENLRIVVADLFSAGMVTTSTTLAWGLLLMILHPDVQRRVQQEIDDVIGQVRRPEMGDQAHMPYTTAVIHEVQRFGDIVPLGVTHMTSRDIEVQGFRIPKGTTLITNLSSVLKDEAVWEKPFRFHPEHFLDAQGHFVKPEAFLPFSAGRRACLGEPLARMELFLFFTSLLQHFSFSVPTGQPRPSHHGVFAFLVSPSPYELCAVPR

[26] = Cytotoxicity against human HepG2 cells; assay type: cell-based
[27] = Toxicity in iv dosed rat administered as single dose; assay type: organism-based; conditions: in vivo
[28] = AUC in rat at 1 mg/kg, iv; assay type: ADME, organism-based; parameters: dose 1 mg/kg; conditions: in vivo
[29] = Clearance in rat at 1 mg/kg, iv; assay type: ADME, organism-based; conditions: in vivo
Klebsiella pneumoniae [30] = experiment: Potentiation of meropenem-induced antibacterial activity against Klebsiella Pneumoniae NR-48977 expressing KPC-2 infected in CD-1 mouse assessed as reduction in bacterial burden co administered with 300 mg/kg, iv meropenem; assay type: functional, organism-based; conditions: dose mg/kg 25-100
Klebsiella pneumoniae [31] = experiment: Potentiation of meropenem-induced antibacterial activity against Klebsiella Pneumoniae ACC-00783 expressing OXA-48 infected in CD-1 mouse assessed as reduction in bacterial burden co administered with 300 mg/kg, iv meropenem; assay type: functional, organism-based; conditions: dose mg/kg 25-100

O=C1N2C[C@@H](CC[C@H]2F)N1OS(=O)(=O)[O-].[Na+]
half-life [1]: 38.4 min | IC50 [2]: 0.01 µM | IC50 [3]: 0.002 µM | IC50 [4]: 0.001 µM | IC50 [5]: 0.175 µM | MIC (Klebsiella pneumoniae [6]): 1 µg/mL | MIC (Klebsiella pneumoniae [7]): 64 µg/mL | MIC (Acinetobacter baumannii [8]): > 128 µg/mL | MIC50 (Enterobacter [9]): 0.06 µg/mL | MIC (Enterobacter [10]): < 0.03 µg/mL | Activity (Enterobacter [11]): 16 µg/mL | MIC50 (Enterobacter [12]): 0.12 µg/mL | MIC90 (Enterobacter [13]): 1 µg/mL | MIC50 (Acinetobacter baumannii [14]): 4 µg/mL | MIC90 (Acinetobacter baumannii [15]): 8 µg/mL | Activity (Acinetobacter baumannii [16]): > 32 µg/mL | remaining at 1 h [17]: 90% | remaining at 1 h [18]: 55% | remaining at 1 h [19]: 79% | hepatocyte CLint [20]: < 3.4 µL/min/1e6 cells | hepatocyte CLint [21]: < 3 µL/min/1e6 cells | hepatocyte CLint [22]: < 3.4 µL/min/1e6 cells | fraction unbound [23]: > 0.93 | fraction unbound [24]: > 0.93 | fraction unbound [25]: > 0.93 | IC50 (Cytochrome P450 1A2): > 50 µM | IC50 (Cytochrome P450 2C9): > 50 µM | IC50 (Cytochrome P450 2C19): > 50 µM | IC50 (Cytochrome P450 2D6): > 50 µM | CC50 [26]: > 100 µM | MTD [27]: ≥ 1000 mg/kg | AUC [28]: 412 ng·h/mL | clearance [29]: 40 mL/min/kg | Activity (Klebsiella pneumoniae [30]): Dose-dependent effect | Activity (Klebsiella pneumoniae [31]): Dose-dependent effect
